Experimental data as given in US20090203610A1, “METHODS OF TREATING OBESITY OR DIABETES USING NT-4/5” (RINAT NEUROSCIENCE CORPORATION, priority 2004, published 2009).

Experiments:
db/db mice [1] = experiment: Food intake of db/db mice (Example 1); assay type: in vivo; details: NT-4/5 20 mg/kg s.c., Rosiglitazone 3 mg/kg p.o.
Procedure: Throughout the experiment period (T1-T26), daily individual body weights as well as food intake per cage were measured.

db/db mice [2] = experiment: Serum nonesterified fatty acids (NEFA) in db/db mice (Example 1); assay type: in vivo; details: NT-4/5 20 mg/kg s.c., Rosiglitazone 3 mg/kg p.o.
Procedure: (§1) A difference was considered significant for p<0.05.
Serum nonesterified fatty acids (NEFA) levels were determined by calorimetric method using a non esterified fatty acids kit (ref. FA 15, Randox, France).

db/db mice [3] = experiment: Blood glucose levels in db/db mice (Example 1); assay type: in vivo; details: NT-4/5 20 mg/kg s.c., Rosiglitazone 3 mg/kg p.o.
Procedure: Administration of NT-4/5 and reference substances: Rosiglitazone (3 mg/kg, Sequoia Research Products Ltd., UK), a thiazolidinedione compound for the therapy of type 2 diabetes, was used in the present experiment as a reference. Phosphate buffer saline was used as vehicle in this experiment. NT-4/5 was obtained from Genentech.
as §1

db/db mice [4] = experiment: Blood insulin level by ELISA in db/db mice (Example 1); assay type: in vivo; details: NT-4/5 20 mg/kg s.c., Rosiglitazone 3 mg/kg p.o.
Procedure: as §1
The blood insulin level was determined by ELISA using an Insulin ELIT Plus kit (ref. INSRAT01-8N, Eurobio, France).

db/db mice [5] = experiment: Serum transaminase (AST, ALT) activity in db/db mice (Example 1); details: NT-4/5 20 mg/kg s.c., Rosiglitazone 3 mg/kg p.o.
Procedure: Test animals: 24 female 10-12 weeks old db/db mice (C57BL/Ks J Rj-db/db, Janvier, France), weighing in the target range of 40-50 g, were used in this study. These mice were housed in a temperature (19.5-24.5° C.) and relative humidity (45-65%) controlled room with a 12-hour light/dark cycle, with ad libitum access to filtered tap-water and irradiated pelleted laboratory chow (SAFE, France) throughout the study. Upon receipt at animal facilities, they were housed 4 per cage covered with filtered caps and at least a 5-day acclimation period was observed.
(§2) The mice were divided into three groups of 8 mice each (groups 1-3). Each group was treated with vehicle (PBS) subcutaneously (s.c.), 3 mg/kg Rosiglitazone orally (p.o.), or 20 mg/kg NT-4/5 subcutaneously (s.c.). From day 1 to day 5 (T1-T5) and then from day 8 to day 12 (T8-T12), the mice in groups 2 and 3 were dosed once daily for 5 consecutive days, with a volume of 10 ml/kg.
Collection of samples for analysis: One day before beginning the treatment (T0), non fasted db/db mice were weighed and blood samples were collected through the retro-orbital plexus (about 300 μL/mouse) under isoflurane anesthesia. Similarly, at day 5 (T5), day 12 (T12), day 19 (T19) and day 26 (T26), two hours after the last administration, blood samples were collected through the retro-orbital plexus under isoflurane anesthesia in non fasted mice.
(§3) Analysis of blood samples in db/db mice: Pre- and post dose serum levels of glucose, HbA1c, cholesterol and triglycerides, insulin, and non esterified fatty acids (NEFA), as well as aspirate amino-transferase (AST) and alanine amino-transferase activities (ALT) activities, were determined at different time points, as described further herein. At each time point and for each parameter, a mean % of the effect was calculated according to the following formula: ((T final−T initial)/T initial)*100. Statistical analysis was consistent in a one-way analysis of variance followed by multiple comparisons versus the vehicle group (Dunnett's test) on final values. In case the equal variance test fails, a Kruskall-Wallis one-way analysis of variance on ranks was conducted. A difference was considered significant for p<0.05.
Aspartate amino-transferase (AST) and alanine amino-transferase (ALT) activities were determined with an AST kit (ref. 442665, Beckman Coulter, France), an ALT kit (ref. 442620, Beckman Coulter, France), using a Synchron CX4 analyzer.

db/db mice [6] = experiment: HbA1c in db/db mice (Example 1); assay type: in vivo
Procedure: as §1
HbA1c levels were determined using an HbA1c kit (ref. 650262, Beckman Coulter, France) and a Synchron CX4 synchronizer. HbA1c is an indicator for blood glucose control over the last 2-3 months. The normal level of HbA1c in C57BL/6J mouse (determined by measuring 8 normal healthy C57BL/6J mice) was about 3.5%.

db/db mice [7] = experiment: Blood triglyceride levels in db/db mice (Example 1); assay type: in vivo; details: NT-4/5 20 mg/kg s.c., Rosiglitazone 3 mg/kg p.o.
Procedure: Test animals: 24 female 10-12 weeks old db/db mice (C57BL/Ks J Rj-db/db, Janvier, France), weighing in the target range of 40-50 g, were used in this study. […] Upon receipt at animal facilities, they were housed 4 per cage covered with filtered caps and at least a 5-day acclimation period was observed.
as §2
Collection of samples for analysis: One day before beginning the treatment (T0), non fasted db/db mice were weighed and blood samples were collected through the retro-orbital plexus (about 300 μL/mouse) under isoflurane anesthesia. Similarly, at day 5 (T5), day 12 (T12), day 19 (T19) and day 26 (T26), two hours after the last administration, blood samples were collected through the retro-orbital plexus under isoflurane anesthesia in non fasted mice. […] An aliquot of serum was used for measuring glucose levels, the remaining was frozen until use.
as §3

db/db mice [8] = experiment: Total blood cholesterol levels in db/db mice (Example 1); assay type: in vivo; details: NT-4/5 20 mg/kg s.c., Rosiglitazone 3 mg/kg p.o.
Procedure: as §1
The blood triglyceride level and the total blood cholesterol level were determined with a triglyceride assay kit (ref 445850, Beckman Coutler, France) and a total cholesterol kit (ref 467825, Beckman Coutler, France), respectively, using a Synchron CX4 analyzer.

CN(CCOc1ccc(CC2SC(=O)NC2=O)cc1)c1ccccn1 (stereo not drawn) [Rosiglitazone, reference compound]
food intake, mean (db/db mice [1]; Day 1): 100.8 g/kg/day
food intake, mean (db/db mice [1]; Day 2): 124.9 g/kg/day
food intake, mean (db/db mice [1]; Day 3): 137.8 g/kg/day
food intake, mean (db/db mice [1]; Day 5): 143.1 g/kg/day
food intake, mean (db/db mice [1]; Day 6): 63.4 g/kg/day
food intake, mean (db/db mice [1]; Day 7): 96.6 g/kg/day
food intake, mean (db/db mice [1]; Day 8): 129.1 g/kg/day
food intake, mean (db/db mice [1]; Day 9): 139.3 g/kg/day
food intake, mean (db/db mice [1]; Day 10): 140.2 g/kg/day
food intake, mean (db/db mice [1]; Day 11): 128.1 g/kg/day
food intake, mean (db/db mice [1]; Day 12): 114.4 g/kg/day
food intake, mean (db/db mice [1]; Day 13): 98.3 g/kg/day
food intake, mean (db/db mice [1]; Day 14): 129.1 g/kg/day
food intake, mean (db/db mice [1]; Day 15): 100.3 g/kg/day
food intake, mean (db/db mice [1]; Day 18): 108.2 g/kg/day
food intake, mean (db/db mice [1]; Day 19): 102.0 g/kg/day
food intake, mean (db/db mice [1]; Day 20): 90.5 g/kg/day
food intake, mean (db/db mice [1]; Day 21): 129.9 g/kg/day
food intake, mean (db/db mice [1]; Day 22): 122.3 g/kg/day
food intake, mean (db/db mice [1]; Day 25): 125.4 g/kg/day
food intake, mean (db/db mice [1]; Day 26): 109.2 g/kg/day
NEFA levels T0 (db/db mice [2]; day 0, before treatment): 0.782 mM
NEFA levels T5 (db/db mice [2]; day 5): 0.507 mM
NEFA % effect T5-T0 (db/db mice [2]; day 5 vs day 0): −32.8%
NEFA levels T12 (db/db mice [2]; day 12): 0.444 mM
NEFA % effect T12-T0 (db/db mice [2]; day 12 vs day 0): −39.9%
NEFA levels T19 (db/db mice [2]; day 19): 0.739 mM
NEFA % effect T19-T0 (db/db mice [2]; day 19 vs day 0): −2.2%
NEFA levels T26 (db/db mice [2]; day 26): 0.345 mM
NEFA % effect T26-T0 (db/db mice [2]; day 26 vs day 0): −53.7%
blood glucose levels T0 (db/db mice [3]; day 0, before treatment): 37.56 mM
blood glucose % effect T5-T0 (db/db mice [3]; day 5 vs day 0): −40.5%
blood glucose levels T12 (db/db mice [3]; day 12): 22.24 mM
blood glucose % effect T12-T0 (db/db mice [3]; day 12 vs day 0): −40.9%
blood glucose levels T19 (db/db mice [3]; day 19 (dosing stopped day 12)): 33.74 mM
blood glucose % effect T19-T0 (db/db mice [3]; day 19 vs day 0): −9.0%
blood glucose levels T26 (db/db mice [3]; day 26 (dosing stopped day 12)): 43.60 mM
blood glucose % effect T26-T0 (db/db mice [3]; day 26 vs day 0): 17.5%
insulin levels T0 (db/db mice [4]; day 0, before treatment): 6.93 nM
insulin levels T5 (db/db mice [4]; day 5): 3.94 nM
insulin % effect T5-T0 (db/db mice [4]; day 5 vs day 0): −37.0%
insulin levels T12 (db/db mice [4]; day 12): 2.85 nM
insulin % effect T12-T0 (db/db mice [4]; day 12 vs day 0): −51.8%
insulin levels T19 (db/db mice [4]; day 19): 7.30 nM
insulin % effect T19-T0 (db/db mice [4]; day 19 vs day 0): 14.4%
insulin levels T26 (db/db mice [4]; day 26): 6.33 nM
insulin % effect T26-T0 (db/db mice [4]; day 26 vs day 0): −5.7%
ALT T0 (db/db mice [5]; day 0, before treatment): 157.5 IU/L
ALT/AST ratio T0 (db/db mice [5]; day 0, before treatment): 1.00
AST T0 (db/db mice [5]; day 0, before treatment): 185.8 IU/L
ALT T5 (db/db mice [5]; day 5): 172.3 IU/L
ALT/AST ratio T5 (db/db mice [5]; day 5): 1.03
AST T5 (db/db mice [5]; day 5): 174.0 IU/L
ALT % effect T5-T0 (db/db mice [5]; day 5 vs day 0): 12.7%
ALT/AST ratio % effect T5-T0 (db/db mice [5]; day 5 vs day 0): 16.4%
AST % effect T5-T0 (db/db mice [5]; day 5 vs day 0): 8.2%
ALT T12 (db/db mice [5]; day 12): 222.0 IU/L
ALT/AST ratio T12 (db/db mice [5]; day 12): 1.13
AST T12 (db/db mice [5]; day 12): 200.5 IU/L
ALT % effect T12-T0 (db/db mice [5]; day 12 vs day 0): 43.6%
ALT/AST ratio % effect T12-T0 (db/db mice [5]; day 12 vs day 0): 30.4%
AST % effect T12-T0 (db/db mice [5]; day 12 vs day 0): 19.9%
ALT T19 (db/db mice [5]; day 19): 179.0 IU/L
ALT/AST ratio T19 (db/db mice [5]; day 19): 1.31
AST T19 (db/db mice [5]; day 19): 148.5 IU/L
ALT % effect T19-T0 (db/db mice [5]; day 19 vs day 0): 16.6%
ALT/AST ratio % effect T19-T0 (db/db mice [5]; day 19 vs day 0): 52.2%
AST % effect T19-T0 (db/db mice [5]; day 19 vs day 0): −6.9%
ALT T26 (db/db mice [5]; day 26): 144.3 IU/L
ALT/AST ratio T26 (db/db mice [5]; day 26): 1.05
AST T26 (db/db mice [5]; day 26): 143.0 IU/L
ALT % effect T26-T0 (db/db mice [5]; day 26 vs day 0): −10.1%
ALT/AST ratio % effect T26-T0 (db/db mice [5]; day 26 vs day 0): 17.1%
AST % effect T26-T0 (db/db mice [5]; day 26 vs day 0): −13.8%
HbA1c level decrease at T12 (db/db mice [6]; T12 vs T0): 1%
HbA1c level decrease at T26 (db/db mice [6]; T26 as compared to T0): 9.6%
HbA1c T0 (db/db mice [6]; day 0, before treatment, NT-4/5 20 mg/kg s.c., Rosiglitazone 3 mg/kg p.o.): 5.74%
HbA1c T12 (db/db mice [6]; day 12, NT-4/5 20 mg/kg s.c., Rosiglitazone 3 mg/kg p.o.): 5.69%
HbA1c % effect T12-T0 (db/db mice [6]; day 12 vs day 0, NT-4/5 20 mg/kg s.c., Rosiglitazone 3 mg/kg p.o.): −1.0%
HbA1c T26 (db/db mice [6]; day 26, NT-4/5 20 mg/kg s.c., Rosiglitazone 3 mg/kg p.o.): 5.18%
HbA1c % effect T26-T0 (db/db mice [6]; day 26 vs day 0, NT-4/5 20 mg/kg s.c., Rosiglitazone 3 mg/kg p.o.): −9.6%
triglycerides levels T0 (db/db mice [7]; day 0, before treatment): 1.39 mM
triglycerides levels T5 (db/db mice [7]; day 5): 0.81 mM
triglycerides % effect T5-T0 (db/db mice [7]; day 5 vs day 0): −30.1%
triglycerides levels T12 (db/db mice [7]; day 12): 0.61 mM
triglycerides % effect T12-T0 (db/db mice [7]; day 12 vs day 0): −51.0%
triglycerides levels T19 (db/db mice [7]; day 19): 0.64 mM
triglycerides % effect T19-T0 (db/db mice [7]; day 19 vs day 0): −46.1%
triglycerides levels T26 (db/db mice [7]; day 26): 1.58 mM
triglycerides % effect T26-T0 (db/db mice [7]; day 26 vs day 0): 23.4%
cholesterol levels T0 (db/db mice [8]; day 0, before treatment): 3.27 mM
cholesterol levels T5 (db/db mice [8]; day 5): 3.48 mM
cholesterol % effect T5-T0 (db/db mice [8]; day 5 vs day 0): 6.5%
cholesterol levels T12 (db/db mice [8]; day 12): 3.25 mM
cholesterol % effect T12-T0 (db/db mice [8]; day 12 vs day 0): −0.3%
cholesterol levels T19 (db/db mice [8]; day 19): 3.01 mM
cholesterol % effect T19-T0 (db/db mice [8]; day 19 vs day 0): −7.5%
cholesterol levels T26 (db/db mice [8]; day 26): 3.05 mM
cholesterol % effect T26-T0 (db/db mice [8]; day 26 vs day 0): −6.7%
